Source: US20080051285A1 (priority 2004, published 2008)
Read-outs that look alike come from different tables or passages of the source.

System: Pyricularia oryzae
Format: in vivo
Conditions: individual active compound, protective, inoculated next day, assessed after 6 days

## CC1CCN(c2c(-c3c(F)cccc3Cl)c(Cl)nc3ncnn23)CC1 [A]
1 ppm in the spray liquor
  Efficacy in % of the untreated control: 0%
4 ppm in the spray liquor
  Efficacy in % of the untreated control: 13%

## C[C@H](Nc1c(-c2c(F)cc(F)cc2F)c(Cl)nc2ncnn12)C(F)(F)F [B]
1 ppm in the spray liquor
  Efficacy in % of the untreated control: 13%
4 ppm in the spray liquor
  Efficacy in % of the untreated control: 57%

## CC1CCN(c2c(-c3c(F)cc(F)cc3F)c(Cl)nc3ncnn23)CC1 [compound I, 5-chloro-7-(4-methylpiperidin-1-yl)-6-(2,4,6-trifluorophenyl)-[1,2,4]tri-azolo[1,5-a]pyrimidine]
1 ppm in the spray liquor
  Efficacy in % of the untreated control: 13%
4 ppm in the spray liquor
  Efficacy in % of the untreated control: 28%

## C=CC1(C)OC(=O)N(c2cc(Cl)cc(Cl)c2)C1=O (centres unmarked) [compound II, 3-(3,5-dichlorophenyl)-5-methyl-5-vinyloxazolidine-2,4-dione]
1 ppm in the spray liquor
  Efficacy in % of the untreated control: 0%
4 ppm in the spray liquor
  Efficacy in % of the untreated control: 0%
